Series [1] deals with pERK1/2 in MIA PaCa-2 cells (KRAS G12C). Put plainly: Whole blood pERK1/2 HTRF assay (KRAS_G12C WB pERK assay). The series is classed as cell-based. The settings on record: Homo sapiens, compound in whole blood, 4 hours, read-out: G12C_WB_pERK. As to the method: MIA PaCa-2 cells (KRAS G12C; ATCC® CRL-1420), HPAF-II (KRAS G12D; ATCC® CRL-1997) and YAPC (KRAS G12V; DSMZ ACC382) are maintained in RPMI 1640 with 10% FBS (Gibco/Life Technologies). For MIA PaCa-2 assay, cells are seeded into 96 well tissue culture plates (Corning #3596) at 25000 cells per well in 100 uL media and cultured for 2 days at 37° C., 5% CO2 before the assay. For HPAF-II and YAPC assay, cells are seeded in 96 well tissue culture plates at 50000 cells per well in 100 uL media and cultured for 1 day before the assay. Whole Blood are added to the 1 uL dots of compounds (prepared in DMSO) in 96 well plates and mixed gently by pipetting up and down so that the concentration of the compound in blood is 1× of desired concentration, in 0.5% DMSO. The media is aspirated from the cells and 50 uL per well of whole blood with test compound is added and incubated for 4 hours for MIA PaCa and YAPC assay; or 2 hours for HPAF-II assay, respectively at 37° C., 5% CO2. After dumping the blood, the plates are gently washed twice by adding PBS to the side of the wells and dumping the PBS from the plate onto a paper towel, tapping the plate to drain well. Fifty ul/well of 1×lysis buffer #1 (Cisbio) with blocking reagent (Cisbio) and Benzonase nuclease (Sigma Cat #E1014-5KU, 1: 10000 final concentration) is then added and incubated at room temperature for 30 minutes with shaking (250 rpm). Following lysis, 16 uL of lysate is transferred into 384-well Greiner small volume white plate using an Assist Plus (Integra Biosciences, NH). Four uL of 1:1 mixture of anti Phospho-ERK 1/2 d2 and anti Phospho-ERK 1/2 Cryptate (Cisbio) is added to the wells using the Assist Plus and incubated at room temperature overnight in the dark. Plates are read on the Pherastar plate reader at 665 nm and 620 nm wavelengths. Data are analyzed in Genedata Screener using SmartFit for IC50 values.
A general note: In TR-FRET formats the signal depends on donor and acceptor labels being close together.

Series [2] deals with pERK in KRAS G12C cells (MIA PaCa-2, NCI-H358). Put plainly: Cellular pERK HTRF assay (KRAS_G12C pERK assay). The series is classed as cell-based. To be noted: 4 hours incubation, read-out: G12C_pERK. As to the method:
MIA PaCa-2 (KRAS G12C; ATCC® CRL-1420), NCI-H358 (KRAS G12C; ATCC® CRL-5807), A427 (KRAS G12D; ATCC® HTB53), HPAFII (KRAS G12D; ATCC® CRL-1997), YAPC (KRAS G12V; DSMZ ACC382), SW480 (KRAS G12V; ATCC® CRL-228) and NCI-H838 (KRAS WT; ATCC® CRL-5844) cells are purchased from ATCC and maintained in RPMI 1640 media supplemented with 10% FBS (Gibco/Life Technologies). The cells are plated at 5000 cells per well (8 uL) into Greiner 384-well low volume, flat-bottom, and tissue culture treated white plates and incubated overnight at […], 5% CO2. The next morning, test compound stock solutions are diluted in media at 3× the final concentration and 4 uL are added to the cells, with a final concentration of 0.1% of DMSO. The cells are incubated with the test compounds for 4 hours (G12C and G12V) or 2 hrs (G12D) at 37° C., 5% CO2. Four uL of 4×lysis buffer with blocking reagent (Cisbio) are added to each well and plates are rotated gently (300 rpm) for 30 minutes at room temperature. Four uL per well of Cisbio anti Phospho-ERK 1/2 d2 is mixed with anti Phospho-ERK 1/2 Cryptate (1:1), and added to each well, incubated overnight in the dark at room temperature. Plates are read on the Pherastar plate reader at 665 nm and 620 nm wavelengths. Data are analyzed in Genedata Screener using SmartFit for IC50 values.

Series [3] is described as follows: Human whole blood stability. The class given is in vitro ADME. The settings on record: percent remaining, 1 μM, 37° C. As to the method:
The whole blood stability of the exemplified compounds was determined by LC-MS/MS. The 96-Well Flexi-Tier™ Block (Analytical Sales & Services, Inc, Flanders, NJ) was used for the incubation plate containing 1.0 mL glass vials with 0.5 mL of blood per vial (pooled gender, human whole blood sourced from BIOIVT, Hicksville, NY or similar). Blood was pre-warmed in water bath to 37° C. for 30 minutes. 96-deep well analysis plate was prepared with the addition of 100 μL ultrapure water/well. 50 μL chilled ultrapure water/well was added to 96-deep well sample collection plate and covered with a sealing mat. 1 μL of 0.5 mM compound working solution (DMSO:water) was added to the blood in incubation plate to reach final concentrations of 1 μM, mixed by pipetting thoroughly and 50 μL was transferred 50 into the T=0 wells of the sample collection plate. Blood was allowed to sit in the water for 2 minutes and then 400 μL stop solution/well was added (acetonitrile containing an internal standard). The incubation plate was placed in the Incu-Shaker CO2 Mini incubator (Benchmark Scientific, Sayreville, NJ) at 37° C. with shaking at 150 rpm. At 1, 2 and 4-hr, the blood samples were mixed thoroughly by pipetting and 50 μL is transferred into the corresponding wells of the sample collection plate. Blood was allowed to sit in the water for 2 minutes and then 400 μL of stop solution/well was added. The collection plate was sealed and vortexed at 1700 rpm for 3 minutes (VX-2500 Multi-Tube Vortexer, VWR International, Radnor, PA), and samples were then centrifuged in the collection plate at 3500 rpm for 10 minutes (Allegra X-14R Centrifuge Beckman Coulter, Indianapolis, IN). 100 μL of supernatant/well was transferred from the sample collection plate into the corresponding wells of the analysis plate. The final plate was vortexed at 1700 rpm for 1 minute and analyze samples by LC-MS/MS. The peak area ratio of the 1, 2, and 4 hr samples relative to T=0 was used to determine the percent remaining. The natural log of the percent remaining versus time was used determine a slope to calculate the compounds half-life in blood (t1/2=0.693/slope).

The target in a further series is KRAS G12C (Homo sapiens, UniProt P01116, G12C). In words: GDP-GTP exchange assay (KRAS_G12C exchange assay). The class given is biochemical. The settings on record: bodipy-loaded KRAS G12C, SOS1, GppNHp; 2 hours pre-incubation with inhibitor; read-out: G12C_exchange. As for the experimental part:
The inhibitor potency of the exemplified compounds was determined in a fluorescence based guanine nucleotide exchange assay, which measures the exchange of bodipy-GDP (fluorescently labeled GDP) for GppNHp (Non-hydrolyzable GTP analog) to generate the active state of KRAS in the presence of SOS1 (guanine nucleotide exchange factor). Inhibitors were serially diluted in DMSO and a volume of 0.1 μL was transferred to the wells of a black low volume 384-well plate. 5 μL/well volume of bodipy-loaded KRAS G12C diluted to 5 nM in assay buffer (25 mM Hepes pH 7.5, 50 mM NaCl, 10 mM MgCl2 and 0.01% Brij-35) was added to the plate and pre-incubated with inhibitor for 2 hours at ambient temperature. Appropriate controls (enzyme with no inhibitor or with a G12C inhibitor (AMG-510)) were included on the plate. The exchange was initiated by the addition of a 5 μL/well volume containing 1 mM GppNHp and 300 nM SOS1 in assay buffer. The 10 μL/well reaction concentration of the bodipy-loaded KRAS G12C, GppNHp, and SOS1 were 2.5 nM, 500 uM, and 150 nM, respectively. The reaction plates were incubated at ambient temperature for 2 hours, a time estimated for complete GDP-GTP exchange in the absence of inhibitor. For the KRAS G12D and G12V mutants, similar guanine nucleotide exchange assays were used with 2.5 nM as final concentration for the bodipy loaded KRAS proteins and with 4 hours and 3 hours incubation after adding GppNHp-SOS1 mixture for G12D and G12V respectively. A cyclic peptide described to selectively bind G12D mutant (Sakamoto et al., BBRC 484.3 (2017), 605-611) or internal compounds with confirmed binding were used as positive controls in the assay plates. Fluorescence intensities were measured on a PheraStar plate reader instrument (BMG Labtech) with excitation at 485 nm and emission at 520 nm.
Either GraphPad prism or Genedata Screener SmartFit was used to analyze the data. The IC50 values were derived by fitting the data to a four parameter logistic equation producing a sigmoidal dose-response curve with a variable Hill coefficient.

A value given as a limit tells only on which side of the number the result lay.

Chain of KRAS G12C (P01116 1-188 isoform P01116-2 G12C): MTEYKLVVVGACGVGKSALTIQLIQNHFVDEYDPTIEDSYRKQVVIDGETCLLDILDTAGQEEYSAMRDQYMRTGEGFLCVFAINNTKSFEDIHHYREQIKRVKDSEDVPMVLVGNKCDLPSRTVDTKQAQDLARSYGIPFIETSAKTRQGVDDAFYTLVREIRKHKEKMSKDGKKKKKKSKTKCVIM

With `CC#CC(=O)N1CC[C@H](n2ncc3c(O[C@@H](C)[C@@H]4CCCN4C)nc4c(F)c(-c5nccc6cccc(C#N)c56)c(Cl)cc4c32)C[C@H]1CC#N` (single isomer, unassigned) [Example 1a], the IC50 (in series [1]; in series [2]; on KRAS G12C) was not above 0.1 µM in each case. In addition, in series [3], the “Human whole blood stability at 4 hr” value was “††† (WBS >90%)”.

Take `C=C(F)C(=O)N1CC[C@H](n2ncc3c(O[C@@H](C)[C@@H]4CCCN4C)nc4c(F)c(-c5nccc6cccc(C#N)c56)c(Cl)cc4c32)C[C@H]1CC#N` (single isomer, unassigned) [Example 3a]: the IC50 (in series [1]; in series [2]; at KRAS G12C) was not above 0.1 µM each time. Moreover, the “Human whole blood stability at 4 hr” value in series [3] is “††† (WBS >90%)”.

For the compound `C=C(F)C(=O)N1CC[C@H](n2ncc3c(N4CC(N(C)CC)C4)nc4c(F)c(-c5c(C)c(C)cc6[nH]ncc56)c(Cl)cc4c32)C[C@H]1CC#N` (single isomer, unassigned) [Example 4a], the IC50 (in series [1]; in series [2]; at KRAS G12C) was not above 0.1 µM in each case. The “Human whole blood stability at 4 hr” value in series [3] is “†† (WBS >70% but ≤90%)”.

Take `C=C(F)C(=O)N1CC[C@H](n2ncc3c(O[C@@H](C)[C@@H]4CCCN4C)nc4c(F)c(-c5cccc6cccc(C#N)c56)c(Cl)cc4c32)C[C@H]1CC#N` (single isomer, unassigned) [Example 5b]: the IC50 (in series [1]; in series [2]; at KRAS G12C) was not above 0.1 µM in each case.

Turning to `CC#CC(=O)N1CC[C@H](n2ncc3c(O[C@@H](C)[C@@H]4CCCN4C)nc4c(F)c(-c5cccc6cccc(C#N)c56)c(C)cc4c32)C[C@H]1CC#N` (single isomer, unassigned) [Example 7], the IC50 (in series [1]; in series [2]; on KRAS G12C) was not above 0.1 µM throughout. Besides, the “Human whole blood stability at 4 hr” value in series [3] is given as “†† (WBS >70% but ≤90%)”.

With `COC/C=C/C(=O)N1CC[C@H](n2ncc3c(O[C@@H](C)[C@@H]4CCCN4C)nc4c(F)c(-c5nccc6cccc(C#N)c56)c(Cl)cc4c32)C[C@H]1CC#N` [Example 2a, 1-(8-chloro-1-((2S,4S)-2-(cyanomethyl)-1-((E)-4-methoxybut-2-enoyl)piperidin-4-yl)-6-fluoro-4-((S)-1-((S)-1-methylpyrrolidin-2-yl)ethoxy)-1H-pyrazolo[4,3-c]quinolin-7-yl)isoquinoline-8-carbonitrile], the IC50 (in series [1]; in series [2]; at KRAS G12C) was not above 0.1 µM each time. In series [3], the “Human whole blood stability at 4 hr” value was “††† (WBS >90%)”.

Regarding `COC/C=C/C(=O)N1CC[C@H](n2ncc3c(O[C@@H](C)[C@@H]4CCCN4C)nc4c(F)c(-c5cccc6cccc(C#N)c56)c(Cl)cc4c32)C[C@H]1CC#N` [Example 6b, 8-(8-chloro-1-((2S,4S)-2-(cyanomethyl)-1-((E)-4-methoxybut-2-enoyl)piperidin-4-yl)-6-fluoro-4-((S)-1-((S)-1-methylpyrrolidin-2-yl)ethoxy)-1H-pyrazolo[4,3-c]quinolin-7-yl)-1-naphthonitrile], the IC50 in series [1] and in series [2] was not above 0.1 µM in each case. In addition, the “Human whole blood stability at 4 hr” value in series [3] is reported as “††† (WBS >90%)”.
